How the values were obtained:
Assay in all cases: Test Example 2: herbicidal activity, application during weed generation in submerged conditions
Format in all cases: in vivo
Monochoria vaginalis = conditions: Eighteenth Table; application herbicide amount 320 g/ha
Outline: (§1)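 Scored three weeks post-application on a 0–5 scale (5: ≥90% herbicidal ratio, almost withered; 0: ≤5%). Plants raised from mixed-sown seed in submerged alluvial soil (4 cm water), 25–30 °C greenhouse; water-diluted emulsion applied onto water surface at one- to two-leaf stage, dose in g/ha.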

[1] = test system: Echinochloa oryzacola Vasing.; conditions: Eighteenth Table
Outline: as §1

Scirpus juncoides = conditions: Eighteenth Table
Outline: as §1

[2] = application herbicide amount 320 g/ha
[3] = application herbicide amount 260 g/ha

| SMILES | C (Monochoria vaginalis) herbicidal ratio grade (Monochoria vaginalis) | A (Echinochloa oryzicola Vasing.) herbicidal ratio grade [1, 2] | B (Scirpus juncoides) herbicidal ratio grade (Scirpus juncoides; [2]) | A (Echinochloa oryzicola Vasing.) herbicidal ratio grade [1, 3] | B (Scirpus juncoides) herbicidal ratio grade (Scirpus juncoides; [3]) |
| --- | --- | --- | --- | --- | --- |
| Cc1nnc(NC(=O)c2ccc(C(F)(F)F)n3c(SC4CCCC4)nnc23)o1 [1-154] | 0 (Herbicidal ratio of 5% or less (almost no effect)) | 0 (Herbicidal ratio of 5% or less (almost no effect)) | 2 (Herbicidal ratio of 20% or more and less than 40%) |  |  |
| O=C(Nc1nnco1)c1ccc(C(F)(F)F)n2c(SC3CCCC3)nnc12 [1-155] | 0 (Herbicidal ratio of 5% or less (almost no effect)) | 1 (Herbicidal ratio of 5% or more and less than 20%) | 2 (Herbicidal ratio of 20% or more and less than 40%) |  |  |
| Cc1nnc(NC(=O)c2ccc(C(F)(F)F)n3c(SCc4ccc(Cl)nc4)nnc23)o1 [1-156] | 2 (Herbicidal ratio of 20% or more and less than 40%) | 0 (Herbicidal ratio of 5% or less (almost no effect)) | 3 (Herbicidal ratio of 40% or more and less than 70%) |  |  |
| O=C(Nc1nnco1)c1ccc(C(F)(F)F)n2c(SCc3ccc(Cl)nc3)nnc12 [1-157] | 0 (Herbicidal ratio of 5% or less (almost no effect)) | 0 (Herbicidal ratio of 5% or less (almost no effect)) | 1 (Herbicidal ratio of 5% or more and less than 20%) |  |  |
| COc1ccc(N(C)c2nnc3c(C(=O)Nc4nnco4)ccc(C(F)(F)F)n23)cc1 [1-171] |  | 4 (Herbicidal ratio of 70% or more and less than 90%) |  |  |  |
| C=CCN(C)c1nnc2c(C(=O)Nc3nnco3)ccc(C(F)(F)F)n12 [1-172] | 3 (Herbicidal ratio of 40% or more and less than 70%) | 3 (Herbicidal ratio of 40% or more and less than 70%) | 4 (Herbicidal ratio of 70% or more and less than 90%) |  |  |
| Cn1nnnc1NC(=O)c1ccc(C(F)(F)F)n2cnnc12 [2-001] | 3 (Herbicidal ratio of 40% or more and less than 70%) | 2 (Herbicidal ratio of 20% or more and less than 40%) | 2 (Herbicidal ratio of 20% or more and less than 40%) |  |  |
| Cc1nnc2c(C(=O)Nc3nnnn3C)ccc(C(F)(F)F)n12 [2-002] | 2 (Herbicidal ratio of 20% or more and less than 40%) | 2 (Herbicidal ratio of 20% or more and less than 40%) | 1 (Herbicidal ratio of 5% or more and less than 20%) |  |  |
| CC(C)c1nnc2c(C(=O)Nc3nnnn3C)ccc(C(F)(F)F)n12 [2-003] | 4 (Herbicidal ratio of 70% or more and less than 90%) | 5 (Herbicidal ratio of 90% or more (almost completely withered)) | 3 (Herbicidal ratio of 40% or more and less than 70%) |  |  |
| Cn1nnnc1NC(=O)c1ccc(C(F)(F)F)n2c(CS(C)(=O)=O)nnc12 [2-034] | 4 (Herbicidal ratio of 70% or more and less than 90%) | 5 (Herbicidal ratio of 90% or more (almost completely withered)) | 4 (Herbicidal ratio of 70% or more and less than 90%) |  |  |
| Cn1nnnc1NC(=O)c1ccc(C(F)(F)F)n2c(C[S+]([O-])CC(F)(F)F)nnc12 (stereo not shown) [2-035] | 3 (Herbicidal ratio of 40% or more and less than 70%) | 2 (Herbicidal ratio of 20% or more and less than 40%) | 2 (Herbicidal ratio of 20% or more and less than 40%) |  |  |
| Cn1nnnc1NC(=O)c1ccc(C(F)(F)F)n2c(S(C)(=O)=O)nnc12 [2-037] | 5 (Herbicidal ratio of 90% or more (almost completely withered)) | 5 (Herbicidal ratio of 90% or more (almost completely withered)) | 5 (Herbicidal ratio of 90% or more (almost completely withered)) |  |  |
| CCS(=O)(=O)c1nnc2c(C(=O)Nc3nnnn3C)ccc(C(F)(F)F)n12 [2-038] | 5 (Herbicidal ratio of 90% or more (almost completely withered)) | 5 (Herbicidal ratio of 90% or more (almost completely withered)) | 4 (Herbicidal ratio of 70% or more and less than 90%) |  |  |
| CCOC(=O)Cc1nnc2c(C(=O)Nc3nnnn3C)ccc(C(F)(F)F)n12 [2-040] | 4 (Herbicidal ratio of 70% or more and less than 90%) | 4 (Herbicidal ratio of 70% or more and less than 90%) | 3 (Herbicidal ratio of 40% or more and less than 70%) |  |  |
| COCCn1nnnc1NC(=O)c1ccc(C(F)(F)F)n2c(C(C)C)nnc12 [2-041] | 3 (Herbicidal ratio of 40% or more and less than 70%) | 5 (Herbicidal ratio of 90% or more (almost completely withered)) | 4 (Herbicidal ratio of 70% or more and less than 90%) |  |  |
| Cc1ccc(-c2nnc3c(C(=O)Nc4nnnn4C)ccc(C(F)(F)F)n23)cc1 [2-042] | 4 (Herbicidal ratio of 70% or more and less than 90%) | 4 (Herbicidal ratio of 70% or more and less than 90%) | 3 (Herbicidal ratio of 40% or more and less than 70%) |  |  |
| Cn1nnnc1NC(=O)c1ccc(C(F)(F)F)n2c(-c3ccc(F)cc3)nnc12 [2-043] | 4 (Herbicidal ratio of 70% or more and less than 90%) | 5 (Herbicidal ratio of 90% or more (almost completely withered)) | 4 (Herbicidal ratio of 70% or more and less than 90%) |  |  |
| COc1cccc(-c2nnc3c(C(=O)Nc4nnnn4C)ccc(C(F)(F)F)n23)c1 [2-044] | 4 (Herbicidal ratio of 70% or more and less than 90%) | 5 (Herbicidal ratio of 90% or more (almost completely withered)) | 4 (Herbicidal ratio of 70% or more and less than 90%) |  |  |
| COc1ccccc1-c1nnc2c(C(=O)Nc3nnnn3C)ccc(C(F)(F)F)n12 [2-045] | 4 (Herbicidal ratio of 70% or more and less than 90%) | 5 (Herbicidal ratio of 90% or more (almost completely withered)) | 3 (Herbicidal ratio of 40% or more and less than 70%) |  |  |
| CC(C)c1nnc2c(C(=O)Nc3nnnn3C)ccc(C(F)F)n12 [2-047] | 4 (Herbicidal ratio of 70% or more and less than 90%) | 3 (Herbicidal ratio of 40% or more and less than 70%) | 5 (Herbicidal ratio of 90% or more (almost completely withered)) |  |  |
| CSCCn1nnnc1NC(=O)c1ccc(C(F)(F)F)n2c(C(C)C)nnc12 [2-048] | 3 (Herbicidal ratio of 40% or more and less than 70%) | 3 (Herbicidal ratio of 40% or more and less than 70%) | 4 (Herbicidal ratio of 70% or more and less than 90%) |  |  |
| CC(C)c1nnc2c(C(=O)Nc3nnnn3C)ccc(C(F)(F)C(F)(F)F)n12 [2-049] | 4 (Herbicidal ratio of 70% or more and less than 90%) | 5 (Herbicidal ratio of 90% or more (almost completely withered)) | 5 (Herbicidal ratio of 90% or more (almost completely withered)) |  |  |
| CN(C)c1nnc2c(C(=O)Nc3nnnn3C)ccc(C(F)(F)F)n12 [2-051] | 5 (Herbicidal ratio of 90% or more (almost completely withered)) | 5 (Herbicidal ratio of 90% or more (almost completely withered)) | 5 (Herbicidal ratio of 90% or more (almost completely withered)) |  |  |
| CSC(C)c1nnc2c(C(=O)Nc3nnnn3C)ccc(C(F)(F)F)n12 (stereo not shown) [2-052] | 4 (Herbicidal ratio of 70% or more and less than 90%) | 5 (Herbicidal ratio of 90% or more (almost completely withered)) | 4 (Herbicidal ratio of 70% or more and less than 90%) |  |  |
| CC(c1nnc2c(C(=O)Nc3nnnn3C)ccc(C(F)(F)F)n12)[S+](C)[O-] (stereo not shown) [2-053] | 4 (Herbicidal ratio of 70% or more and less than 90%) | 5 (Herbicidal ratio of 90% or more (almost completely withered)) | 4 (Herbicidal ratio of 70% or more and less than 90%) |  |  |
| CC(c1nnc2c(C(=O)Nc3nnnn3C)ccc(C(F)(F)F)n12)S(C)(=O)=O (stereo not shown) [2-054] | 5 (Herbicidal ratio of 90% or more (almost completely withered)) | 5 (Herbicidal ratio of 90% or more (almost completely withered)) | 4 (Herbicidal ratio of 70% or more and less than 90%) |  |  |
| CC(C)Nc1nnc2c(C(=O)Nc3nnnn3C)ccc(C(F)(F)F)n12 [2-066] | 3 (Herbicidal ratio of 40% or more and less than 70%) | 3 (Herbicidal ratio of 40% or more and less than 70%) |  |  |  |
| Cn1nnnc1NC(=O)c1ccc(C(F)(F)F)n2c(CO)nnc12 [2-108] |  | 0 (Herbicidal ratio of 5% or less (almost no effect)) | 1 (Herbicidal ratio of 5% or more and less than 20%) |  |  |
| Cn1nnnc1NC(=O)c1ccc(C(F)(F)F)n2c(C=O)nnc12 [2-109] |  |  |  | 1 (Herbicidal ratio of 5% or more and less than 20%) | 1 (Herbicidal ratio of 5% or more and less than 20%) |
